Test results: PubChem BioAssay (NCI)
Several values for one entry are separate records, joined by “and”; a condition that tells them apart may be missing. Identical values can stand only once.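 Step 1: Grow cells in 96-well plates. Step 2: Expose to compound for 48 hours at 5 concentrations. Step 3: Interpolate endpoints linearly; if unreached, use highest concentration. Abbreviation: GI50, concentration required for 50% inhibition of growth. TGI: concentration producing complete growth inhibition.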

Tests used:
Test in all cases: NCI anticancer screen, dose series, 48 h
786-0 renal = system: 786-0 renal
CAKI-1 renal = system: CAKI-1 renal
EKVX NSCLC = system: EKVX NSCLC
HOP-18 NSCLC = system: HOP-18 NSCLC
M19-MEL melanoma = system: M19-MEL melanoma
RPMI-8226 leukemia = system: RPMI-8226 leukemia
SK-MEL-2 melanoma = system: SK-MEL-2 melanoma
SNB-19 CNS = system: SNB-19 CNS
DU-145 prostate = system: DU-145 prostate
SK-MEL-28 melanoma = system: SK-MEL-28 melanoma

SMILES | GI50 (786-0 renal) | TGI (786-0 renal) | GI50 (CAKI-1 renal) | TGI (CAKI-1 renal) | GI50 (EKVX NSCLC) | TGI (EKVX NSCLC) | TGI (HOP-18 NSCLC) | GI50 (M19-MEL melanoma) | TGI (M19-MEL melanoma) | TGI (RPMI-8226 leukemia) | GI50 (SK-MEL-2 melanoma) | TGI (SK-MEL-2 melanoma) | GI50 (SNB-19 CNS) | TGI (SNB-19 CNS) | GI50 (DU-145 prostate) | TGI (DU-145 prostate) | GI50 (RPMI-8226 leukemia) | GI50 (SK-MEL-28 melanoma) | TGI (SK-MEL-28 melanoma)
COc1cc2c(c(OC)c1OC)-c1ccc(SC)c(=O)cc1C(CO)C2 (stereo not given) | < 0.01 µM | > 100 µM | < 0.01 µM | > 100 µM | < 0.01 µM | > 100 µM | > 100 µM | < 0.01 µM | > 100 µM | > 100 µM | < 0.01 µM | < 0.01 µM | < 0.01 µM | > 100 µM |  |  |  |  | 
CN(O)c1nc(N(C)O)nc(N2CCOCC2)n1 | 3.47 µM | 74 µM | 1.08 µM | > 100 µM | 1.9 µM | > 100 µM |  |  |  | > 100 µM | 7.7 µM | > 100 µM | 7.35 µM | > 100 µM | 4.93 µM | > 100 µM | 3.85 µM | 7.08 µM | > 100 µM
CC/C=C1/C(=O)C=C[C@@H]1C/C=C\CCCC(=O)OC | 2.56 µM | 6.59 µM | 2.7 µM | 7.45 µM | 4.8 µM | 16.8 µM |  |  |  | 5.54 µM | 2.24 µM | 6.94 µM | 3.27 µM | 12.9 µM | 4.56 µM | 16.4 µM | 0.699 µM | 2.52 µM | 6.27 µM
COC(=O)c1nc(-c2ccccc2)oc1S(=O)(=O)Cc1ccccc1 | 3.25 µM | 11 µM | 1.84 µM | 3.42 µM | 14.4 µM | 30.1 µM |  |  |  | 9.51 µM | 12.7 µM | 26.9 µM | 16.3 µM | 31.3 µM | 3.46 µM | 10.9 µM | 3.05 µM | 7.15 µM | 20.4 µM
C=C1C(=O)O[C@H]2[C@H]1CC/C(COC(=O)NCc1ccc(Cn3c(=O)sn(CCCl)c3=O)cc1)=C\CC[C@@]1(C)O[C@@H]21 | 1.79 µM | 3.27 µM | 1.76 µM | 3.71 µM | 1.99 µM | 5.25 µM |  |  |  | 6.25 µM | 10.6 µM | 24.7 µM | 11.9 µM | 26.1 µM | 1.72 µM | 3.14 µM | 2.37 µM | 1.74 µM | 3.38 µM
COc1ccc2nc3cccc([N+](=O)[O-])c3c(NCCCCCC(=O)O)c2c1 | 0.0799 µM | 0.548 µM | 0.0365 µM | 0.284 µM | 0.297 µM | 1.97 µM |  |  |  | 0.052 µM | 0.0342 µM | 0.117 µM | 0.178 µM | 2.84 µM | 0.043 µM | 1.02 µM | 0.0131 µM | 0.159 µM | 0.548 µM
CCN(CC)CCCC(C)Nc1ccnc2cc(Oc3ccccc3)ccc12 (stereo not given) | 4.53 µM and 5.09 µM | 11.6 µM and 17.4 µM | 13.1 µM and 5.96 µM | 37.9 µM and 36.2 µM | 14.1 µM and 18.6 µM | 31.8 µM and 98.7 µM |  |  |  | 13.9 µM and 28.2 µM | 3.05 µM and 2.36 µM | 8.96 µM and 5.68 µM | 15.8 µM and 25.4 µM | 66.3 µM and > 100 µM | 5.73 µM and 54.6 µM | 22.4 µM and > 100 µM | 5.02 µM and 5.36 µM | 1.73 µM and 1.99 µM | 3.22 µM and 3.65 µM
